“Also recorded” adds a separate entry of the source.
Legend:
[1] = system: Balb/c mice, depilated area; assay: Test for hair growth in Balb/c mice (2), once a day for four weeks; assay type: in vivo; conditions: applied once a day for four weeks
Description: Balb/c mice, 5-6 weeks old, were purchased and shaved on the side to remove hair partially, followed by applying a depilatory cream to the shaved area to remove hair therefrom completely. The mice which were not completely depilated were excluded from the test. The suitable mice were randomly housed in cages at a population of three per cage. A total of five cages were employed.
The mice were left for one day after hair removal, and then the depilated area was coated once a day with the NAPS-1-P-containing liposomes prepared in Example 1. A total of 14 rounds of application were conducted. Hair growth was compared between treated groups and non-treated groups.
The NAPS-1-P 0.5%-containing liposomes (Example 1), the NAPS-1-P 1.0%-containing liposomes (Example 2), and the PhS-1-P 0.5%-containing liposomes (Example 4) were tested for hair growth activity in the same manner as in Experimental Example 1, with the exception that they were applied once a day for four weeks. In this context, Rogaine 5% (minoxidil 5% solution) was used as a positive control.

[2] = system: CAM (chorioallantoic membrane); assay: Test for angiogenic activity, CAM (chorioallantoic membrane) assay; assay type: in vivo, chicken; conditions: for Angiogenic activity compared to the control: CAM assay, Table 3 and FIG. 5
Protocol: NAPS-1-P 0.5%-containing liposomes and the PhS-1-P 0.5%-containing liposomes, respectively prepared in Examples 1 and 4, were assayed for angiogenesis, with the use of phosphate buffered saline as a negative control, sphingosine-1-phosphate (PS-1-P) as a positive control, and the angiogenesis inhibitor trimethyl phytosphingosine (TMP) as a suppressive control.
For angiogenesis assay, CAM (chorioallantoic membrane) was used as a model. CAM from developing chicken eggs is routinely used in biological and biomedical research to investigate angiogenesis.
Fertile hen's eggs which were within one day after being laid, were purchased. Three days later, 6 mL of the white was removed from the fertile hen's eggs using a syringe, as illustrated in i of FIG. 4. Afterward, the eggs were opened at the top, as illustrated in ii of FIG. 4. From three days after egg-laying, the embryo started to develop. The membrane surrounding the embryo is CAM. Then, a cover slip on which a test drug was dropwise loaded and dried was placed on CAM, as illustrated in iii of FIG. 4. After the lapse of three days, the eggs were examined for drug-induced angiogenesis under a microscope, as illustrated in iv of FIG. 4.

[3] = microscopic observation three days after placing test drug on CAM

Row | Molecule | Hair growth promoting activity, comparison between substances, concentrations or with minoxidil 5% solution (FIGS. 2 and 3) [1] | Angiogenic activity compared to the control [2] | Angiogenesis results: count graded + (weakly promotive of angiogenesis) [2, 3] | Angiogenesis results: count graded ++ (highly promotive of angiogenesis) [2, 3] | Angiogenesis results: count graded +/− (insignificantly promotive of angiogenesis) [2, 3] | Angiogenesis results: count graded − (weakly inhibitive of angiogenesis) [2, 3] | Angiogenesis results: count graded −− (highly inhibitive of angiogenesis) [2, 3]
1 | CCCCCCCCCCCCCC[C@@H](O)[C@@H](O)[C@H](COP(=O)(O)O)NC(C)=O [NAPS-1-P, N-acetylphytosphingosine-1-phosphate] | superior of NAPS-1-P to PhS-1-P | significant angiogenic activity; also recorded: peak activity | 3 | 7 |  |  | 
2 | CCCCCCCCCCCCCC[C@@H](O)[C@@H](O)[C@@H](N)COP(=O)(O)O [PhS-1-P, phytosphingosine-1-phosphate] |  | significant angiogenic activity | 5 | 4 | 1 |  | 
3 | CCCCCCCCCCCCC/C=C/[C@@H](O)[C@@H](N)COP(=O)(O)O [PS-1-P, sphingosine-1-phosphate, reference compound] |  |  | 5 | 4 | 1 |  | 
4 | trimethyl phytosphingosine [TMP, reference compound] |  |  |  |  |  | 2 | 8

Source: patent US8729052B2, “Composition for the prevention and treatment of alopecia, or for hair growth” (Phytos Co., Ltd., priority 2008, dated 2014)
